Source: patent US20240084258A1, “METHOD FOR PREPARING BROWN ADIPOCYTE” (KYOTO PREFECTURAL PUBLIC UNIVERSITY CORPORATION, priority 2015, published 2024)

Experiments:
Format in all cases: cell-based
[1] = system: human dermal fibroblasts (HDFs); test: UCP1 protein immunostaining, fluorescence intensity (Example 8); conditions: induction medium + T3 + Rosiglitazone, D4476, SB431541, ALK5 inhibitor II, FSK 2 μM, PD0325901 1 μM, day 14, FIG. 8A-C
Method: (§1) The next day, the culture supernatant was removed by suction and, as described in the Figure, a normal medium, an adipocyte induction medium, or an adipocyte induction medium added with each compound and the like was added at 500 μL/well. […] The concentrations of the additives are as follows: • T3: 1 nM • Rosiglitazone: 1 μM • […]: 2 μM • SB431541: 2 μM • ALK5 inhibitor II: 2 μM • PD0325901: 1 μM • Forskolin (FSK): 2 μM. The culture medium was substituted by a fresh one every 3-4 days and the cells were cultured up to day 14. […] The cells were photographed at a magnification of 200 with a fluorescence microscope and the fluorescence intensity was measured.

[2] = system: human dermal fibroblasts (HDFs); test: AdipoQ gene mRNA by real time RT-PCR (Example 6); conditions: induction medium + T3 + Rosiglitazone, D4476, SB431542, ALK5 Inhibitor II 2 μM, PD0325901 1 μM, day 14, FIG. 6
Method: This was seeded in a 24-well plate at a concentration of 1×10^4 cells/well (day 0), and culturing was started at 5% CO2/95% humid air, 37° C. The next day, the culture supernatant was removed by suction and, as described in the Figure, a normal medium, an adipocyte induction medium, or an adipocyte induction medium added with each low-molecular-weight compound and the like was added at 500 μL/well. […] The concentrations of the additives are as follows: • T3: 1 nM • Rosiglitazone: 1 μM • D4476: 2 μM. • Pifithrin alpha [p53 inhibitor]: 5 μM • PD0325901: 1 μM • SB431542: 2 μM • ALK5 Inhibitor II: 2 μM. The culture medium was substituted by a fresh one every 3-4 days and the cells were cultured up to day 14.

[3] = system: human dermal fibroblasts (HDFs); test: Oil Red O staining of fibroblasts cultured with compounds (Example 1); conditions: adipocyte induction medium with T3 1 nM and Rosiglitazone 1 μM, D4476 2 μM, SB431542 2 μM, ALK5 Inhibitor II 2 M, Pifithrin alpha 5 μM, day 14, FIG. 1
Method: The next day, the culture supernatant was removed by suction and, as described in the Figure, a normal medium, an adipocyte induction medium, or an adipocyte induction medium added with the compound and the like was added at 500 μL/well.
The adipocyte induction medium is a 10% FBS-added DMEM+MDI medium (10% FBS-added DMEM supplemented with 0.5 mM isobutylmethylxanthine (IBMX), 0.5 μM dexamethason and 1 μg/mL Insulin).
The concentrations of the additives are as follows: • T3: 1 nM • Rosiglitazone: 1 μM • D4476: 2 μM • Pifithrin alpha [p53 inhibitor]: 5 μM • SB431542: 2 μM • ALK5 Inhibitor II: […].
The culture medium was substituted by a fresh one every 3-4 days and the cells were cultured up to day 14.
After washing 3 times with sterile distilled water, Oil Red O staining solution was added, and the mixture was incubated at room temperature for 15 min. Then, the cells were washed with sterile distilled water and photographed at a magnification of 100 with a phase contrast microscope.

[4] = system: human dermal fibroblasts (HDFs); test: UCP1 protein immunostaining, comparison of four inhibitors (Example 16); conditions: ALK5 inhibitor II 4 μM, LY2157299 8 μM; for UCP1 protein expression by immunostaining (induction into brown adipocytes): SB431542 4 μM, D4476 4 μM up to Day 9, day 14, FIG. 16A, 16B
Method: Thereafter, the cells were cultured in an adipocyte induction medium free of any compound of ALK5 inhibitor II, SB431542, LY215799 and D4476 during Day 9-Day 14. On day 14, the medium was removed by suction from each well, and the cells were washed with PBS(−).

[5] = system: human dermal fibroblasts (HDFs); test: BODIPY staining of lipid droplets (Example 7); conditions: induction medium + T3 + Rosiglitazone, compounds 2 μM, day 14, FIG. 7A, 7B
Method: as §1, with “each low-molecular-weight” for “each”, “II:” for “II: 2 μM • PD0325901: 1 μM • Forskolin (FSK):”

[6] = system: human dermal fibroblasts (HDFs); test: UCP1 gene mRNA, comparison of four inhibitors at 4-16 μM (Example 15); conditions: for induction efficiency into brown adipocytes (order): compound at 4, 8, 12 or 16 μM up to Day 9, UCP1 mRNA on day 14, FIG. 15; for UCP1 gene expression (conversion to brown adipocytes): compound at 4, 8, 12 or 16 μM up to Day 9, then without compound Day 9-14, FIG. 15
Method: (Day −1). In the control (Ctrl) group, the culture supernatant of the next day (Day 0) was removed by suction and the cells were cultured in a normal medium up to day 14 while substituting the medium with a fresh one once every other day. In groups other than the control (Ctrl) group, the culture supernatant was removed by suction on day 0, an adipocyte induction medium or an adipocyte induction medium added with any of ALK5 inhibitor II, SB431542, LY2157299 and D4476 at a concentration of 4 μM, 8 μM, 12 μM or 16 μM respectively was added at 1 mL/well.
Thereafter, the cells were cultured in an adipocyte induction medium free of any compound of ALK5 inhibitor II, SB431542, LY215799 and D4476 during Day 9-Day 14.

[7] = system: human dermal fibroblasts (HDFs); test: CIDEA gene mRNA by real time RT-PCR (Example 4); conditions: induction medium + T3 + Rosiglitazone, compounds 2 μM, day 14, FIG. 4
Method: The next day, the culture supernatant was removed by suction and, as described in the Figure, a normal medium, an adipocyte induction medium, or an adipocyte induction medium added with each compound and the like was added at 500 μL/well. […] The concentrations of the additives are as follows: • T3: 1 nM • Rosiglitazone: 1 μM • D4476: 2 μM • Pifithrin alpha [p53 inhibitor]: 5 μM • SB431542: 2 μM • ALK5 Inhibitor II: 2 μM. The culture medium was substituted by a fresh one every 3 4 days and the cells were cultured up to day 14.

Row | SMILES | UCP1 protein expression by immunostaining (conversion to brown adipocytes) [1] | mRNA expression of AdipoQ gene (conversion to brown adipocytes) [2] | Oil Red O staining [3] | UCP1 protein expression by immunostaining (induction into brown adipocytes) [4] | strength of induction of UCP1 expression (order) ([4]; immunostaining day 14, FIG. 16) | lipid droplets stained with BODIPY (conversion to brown adipocytes) [5] | induction efficiency into brown adipocytes (order) [6] | UCP1 gene expression (conversion to brown adipocytes) [6] | mRNA expression of CIDEA gene (conversion to brown adipocytes) [7]
1 | Cc1cccc(-c2n[nH]cc2-c2ccc3ncccc3n2)n1 [ALK5 Inhibitor II, 2-(3-(6-Methylpyridin-2-yl)-1H-pyrazol-4-yl)-1,5-naphthyridine] | converted to brown adipocytes expressing UCP1 protein | converted to brown adipocytes expressing mRNA of AdipoQ gene | Remarkable Oil Red O staining | induced into brown adipocytes expressing UCP1 protein | most strongly induced | converted to brown adipocytes having lipid droplets stained with BODIPY | most strongly induced into brown adipocytes | converted to brown adipocytes strongly expressing UCP1 gene | converted to brown adipocytes expressing mRNA of CIDEA gene
2 | NC(=O)c1ccc(-c2nc(-c3ccc4c(c3)OCCO4)c(-c3ccccn3)[nH]2)cc1 [D4476, 4-[4-(2,3-dihydro-1,4-benzodioxin-6-yl)-5-(2-pyridlnyl-)1H-imidazol-2-yl]-benzamide] | converted to brown adipocytes expressing UCP1 protein | converted to brown adipocytes expressing mRNA of AdipoQ gene | Remarkable Oil Red O staining | induced into brown adipocytes expressing UCP1 protein | – | converted to brown adipocytes having lipid droplets stained with BODIPY | ALK5 inhibitor II>LY2157299>SB431541>D4476 | converted to brown adipocytes strongly expressing UCP1 gene | converted to brown adipocytes expressing mRNA of CIDEA gene
